We go through one substance from patent US20040024317A1, “Method for assessing capillary permeability” (priority 2002, published 2004).

This data set in a line: Persistence length by light scattering. The class given is physicochemical. The settings on record: little or no substitution; folded polypeptide. An excerpt: An elongated, worm-like conformation of a macromolecule results in greater uptake than other conformations, such as folded, or globular conformations. Conformation may be measured by a persistence length of the molecule. This may be determined by light scattering.
The conformation attained by the present polymeric contrast agents is that of a worm-like shape being essentially a stretched out, extended chain with little folding. A measure of the “straightness” of a molecule is a persistence length. Persistence length is related to a radius of gyration, measured by light scattering experiments. A folded polypeptide such as poly-L-lysine (PLL) with little or no substitution, has a low persistence length of about 10 Angstroms (Å), and is not suitable for diagnosing sepsis. Therefore, the present polymeric contrast agents preferably have a persistence lengths of 100-600 Å.

Regarding poly-L-lysine [poly-L-lysine (PLL)], the persistence length result is on record as “about 10 Angstroms (Å)”.
